Assay results reported in patent US9386766B2, “Insect attractant compositions” (University of Greenwich, priority 2009, dated 2016).

Columns and labels:
H. armigera [1] = experiment: Field trials in Bangladesh: trap catch with floral odour lures (Example 1); type: in vivo, Helicoverpa armigera; settings: Table 1; increasing relative amount of minor components; adult H. armigera
Experimental: Lures were prepared from heat-sealed low density polyethylene sachets formed from ‘layflat plastic’ tubing. In early field work, the lures were prepared on site, with each lure comprising a single compound in a dose of 0.1 ml. The release rate of compounds from the polyethylene sachets is independent of the amount of material in the sachet and so a particular dosage affects longevity only. Longevity, in turn, is dependent on ambient temperature, with an increase of 7-10° C. leading to a doubling of the release rate. Water traps were placed at crop height and trap catches were taken as a crude measure of attractiveness to the compounds. As the compounds mimic ‘floral odours’ generally, they were not expected to be species-specific in their effect.
During testing, different combinations of floral odours, together with H. armigera pheromone, were used as attractants. The chemicals were put inside sealed plastic sachets (10×5 cm) and the sachets were hung inside traps prepared from clear plastic pots (19 cm height, 15 cm dia.) with two triangular holes (12 cm base, 9 cm height) at opposite sides. The traps were set at 1 m height with an inter-trap distance of 10 m. Insects that were trapped by the lures were collected, identified and recorded at weekly intervals.

H. armigera [2] = experiment: Field trials in India and Bangladesh: floral bait trap catches, Trials 1-5 (Example 2); type: in vivo, Helicoverpa armigera; settings: Trial 1; for Total catches H. armigera: Cotton
From the text: (§1) In addition, five pheromone baited traps (baited with the pheromone of the key Helicoverpa and related spp.) were used as standards for each target species. Lures were changed every two to three weeks.
(§2) The choice of pheromone trap depended on local availability. In India, the preferred trap was the standard Pheromone Chemicals Ltd. plastic funnel trap, while in Bangladesh a plastic water trap was used. Pheromone lures for the trials were provided by NRI. In India and Bangladesh, H. armigera, Maruca vitrata, Earias vittella and Pectinophora gossypiella lures were provided.
(§3) The floral baits were provided in sealed lay-flat polyethylene sachets. The sachets were hung inside the traps in the same way as the pheromone lures. Traps were supported at crop height and the height was adjusted periodically to account for crop growth. Yellow-coloured traps were avoided in order to deter pollinators. Preferably, traps should be colourless or green-coloured. Trap covers were opaque. Where necessary, a killing agent was incorporated into each trap—to ensure insects were dead before opening the trap to count catches.
(§4) Trial 1 was designed to investigate the effect of altering the relative amount of the two main components, phenylacetaldhyde and salicylaldehyde on catch. The trial was laid out in cotton fields at four locations: Narakoduru and Jammikunta in Andhra Pradesh, India, and Shreepur and Jessore in Bangladesh.
In Trial 2, the standard 5-component blend used in Example 1 (96/12) was compared to: Magnet® (96/10), Li et al. (2005) (96/11) and a binary blend of phenylacetaldehyde and salicylaldehyde (96/13).
In Trial 3, a third component was added to a roughly 70:30 blend of phenylacetaldehyde:salicylaldehyde, to assess whether the additional compound made the binary blend more attractive to nocturnal Lepidoptera. The compositions of the blends tested are shown in Table 11 and the results in Table 12.
In Trial 4, two compounds were added to a 70:30 blend of phenylacetaldehyde:salicylaldehyde, to assess whether the additional compounds made the binary blend more attractive to nocturnal Lepidoptera. The compositions of the blends tested are shown in Table 13 and the results in Table 14.
In Trial 5, the three compounds, methyl 2-methoxybenzoate, linalool and limonene were added to the binary 70:30 blend of phenylacetaldehyde:salicylaldehyde in two ratios, 1:1:1 and 1:1:0.5 at 3, 9, 30 and 90% w/w of the binary blend, to assess whether the additional compounds made the binary blend more attractive to nocturnal Lepidoptera. The compositions of the blends tested are shown in Table 15 and the results in Table 16.

All Lepidoptera = experiment: Field trials in India: floral bait trap catches, Trials 1-5 (Example 2); type: in vivo; settings: Trial 1; for Total catches All Lepidoptera: Cotton; for Attractiveness to the non-target species recorded: species of Table 17
From the text: as §1, §2, §3, §4
In India, records were taken of all Lepidopterous species caught in the traps. The total Lepidoptera catches reflected the general trends in H. armigera catches. […] Thus blends containing between 3 and 30 percent salicylaldehyde relative to phenylacetaldehyde were on average the most attractive of the binary blends tested. […]

Apis mellifera = experiment: Floral bait trap catches of non-target insects (Example 2); type: in vivo; settings: Trial 1; Narakoduru, Warangal District, AP, India; Cotton
From the text: as §1, §2, §3
(§5) In Tables 17 to 23 the total catches of selected Lepidoptera, Hymenoptera (Apis mellifera and Bombus spp.) and Diptera are shown.

Autographa gama = experiment: as above; type: in vivo; settings: Trial 1; Narakoduru, Warangal District, AP, India; Cotton
From the text: as §1, §2, §3, §5

Bombus spp. = experiment: as above; type: in vivo; settings: Trial 1; Narakoduru, Warangal District, AP, India; Cotton
From the text: as §1, §2, §3, §5

Diaphania indica = experiment: as above; type: in vivo; settings: Trial 1; Narakoduru, Warangal District, AP, India; Cotton
From the text: as §1, §2, §3, §5

Diptera = experiment: as above; type: in vivo; settings: Trial 1; Narakoduru, Warangal District, AP, India; Cotton
From the text: as §1, §2, §3, §5

Lampides boeticus = experiment: as above; type: in vivo; settings: Trial 1; Narakoduru, Warangal District, AP, India; Cotton
From the text: as §1, §2, §3, §5

Other Lepidoptera = experiment: as above; type: in vivo; settings: Trial 1; Narakoduru, Warangal District, AP, India; Cotton
From the text: as §1, §2, §3, §5

Parnara guttatus = experiment: as above; type: in vivo; settings: Trial 1; Narakoduru, Warangal District, AP, India; Cotton
From the text: as §1, §2, §3, §5

Spodoptera litura = experiment: as above; type: in vivo; settings: Trial 1; Narakoduru, Warangal District, AP, India; Cotton
From the text: as §1, §2, §3, §5

H. armigera [3] = experiment: Field trials in India and Bangladesh: floral bait trap catches, Trials 1-5 (Example 2); type: in vivo, Helicoverpa armigera; settings: Trial 1; Jessore; Country bean
[4] = system: female Helicoverpa armigera; settings: Pawar et al., 1993; cited from earlier work

Structure (SMILES)	H. armigera Catch (H. armigera [1])	Total catches H. armigera (H. armigera [2]; Jammikunta KVK)	Total catches H. armigera (H. armigera [2]; Jessore)	Total catches H. armigera (H. armigera [2]; Narakoduru, Guntur)	Total catches H. armigera (H. armigera [2]; Shreepur)	Total catches All Lepidoptera (All Lepidoptera; Jammikunta KVK)	Total catches All Lepidoptera (All Lepidoptera; Narakoduru, Guntur)	Attractiveness to the non-target species recorded (All Lepidoptera)	Total catches Apis mellifera (Apis mellifera)	Total catches Autogr. gama (Autographa gama)	Total catches Bombus spp. (Bombus spp.)	Total catches Diaphania indica (Diaphania indica)	Total catches Diptera (Diptera)	Total catches Lampides boeticus (Lampides boeticus)	Total catches Other Lepidop. (Other Lepidoptera)	Total catches Parnara guttat. (Parnara guttatus)	Total catches Spodopt. litura (Spodoptera litura)	Total catches H. armigera (H. armigera [3])	Attraction of female Helicoverpa armigera [4]	Attractiveness to H. armigera (H. armigera [2])
O=CCc1ccccc1 [96/09, phenylacetaldehyde]	9	1	30	1	20	15	94	attractive	18	12	1	13	8	1	67	14	1	0	strong attractant	–
O=Cc1ccccc1O [96/01, salicylaldehyde]	–	0	16	0	1	3	8	unattractive	10	0	0	1	1	0	6	0	1	3	–	attractive
